We go through 17 compounds from patent US12187723B2 (BRISTOL-MYERS SQUIBB COMPANY, priority 2019, dated 2025).

The assay has as its target T1, human TLR9 (Homo sapiens, UniProt Q9NR96).
T1 construct: host or cells: HEK-Blue cells
T1 sequence (Q9NR96 26-1032): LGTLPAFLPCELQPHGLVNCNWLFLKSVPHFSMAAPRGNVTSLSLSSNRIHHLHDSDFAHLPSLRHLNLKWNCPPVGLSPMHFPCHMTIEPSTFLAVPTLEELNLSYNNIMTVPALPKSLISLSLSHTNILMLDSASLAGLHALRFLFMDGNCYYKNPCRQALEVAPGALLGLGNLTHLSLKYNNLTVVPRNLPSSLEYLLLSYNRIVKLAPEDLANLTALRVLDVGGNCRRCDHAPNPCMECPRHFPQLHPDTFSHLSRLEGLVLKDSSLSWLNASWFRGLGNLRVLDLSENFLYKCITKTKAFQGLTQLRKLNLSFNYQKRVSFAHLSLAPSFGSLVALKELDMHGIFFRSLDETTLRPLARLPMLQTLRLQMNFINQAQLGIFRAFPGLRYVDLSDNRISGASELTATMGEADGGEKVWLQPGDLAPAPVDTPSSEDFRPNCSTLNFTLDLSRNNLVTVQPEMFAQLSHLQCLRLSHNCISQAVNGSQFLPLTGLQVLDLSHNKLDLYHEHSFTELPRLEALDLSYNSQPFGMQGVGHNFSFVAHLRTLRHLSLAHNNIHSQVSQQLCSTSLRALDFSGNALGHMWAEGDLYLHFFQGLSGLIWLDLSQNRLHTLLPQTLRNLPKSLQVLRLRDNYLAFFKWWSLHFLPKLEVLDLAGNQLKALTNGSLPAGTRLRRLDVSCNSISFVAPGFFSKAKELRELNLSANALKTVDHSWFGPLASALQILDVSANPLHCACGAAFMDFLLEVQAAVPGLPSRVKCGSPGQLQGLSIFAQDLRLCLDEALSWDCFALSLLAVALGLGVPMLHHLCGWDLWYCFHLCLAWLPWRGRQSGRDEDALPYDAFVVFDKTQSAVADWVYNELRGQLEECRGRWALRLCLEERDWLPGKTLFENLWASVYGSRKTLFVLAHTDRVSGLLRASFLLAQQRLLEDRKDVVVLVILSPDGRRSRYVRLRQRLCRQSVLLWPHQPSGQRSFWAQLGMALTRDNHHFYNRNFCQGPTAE
As to the kind of experiment: TLR9 inhibition reporter assay (HEK-Blue SEAP). Type of assay: cell-based. The conditions noted are these: HEK-Blue cells overexpressing human TLR9, ODN2006 5 nM, 22 hour incubation. Put shortly: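 HEK-Blue cells overexpressing human TLR7, TLR8 or TLR9 carry a SEAP reporter driven by NF-κB/AP-1 sites. Compounds (0.05 nM–50 μM) were preincubated 30 min at room temperature, then cells were stimulated with gardiquimod 7.5 μM (TLR7), R848 15.9 μM (TLR8) or ODN2006 5 nM (TLR9) for 22 h at 37 °C.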
As a reminder, the IC50 is the point on the concentration scale where inhibition reaches its midpoint. Low values mean greater potency in that assay, high ones weaker potency in that assay. Compound `CCCN1CCC[C@@H](n2c(=O)[nH]c3cc(-c4cn5ncnc5c(C)c4C)c(C(C)C)cc32)C1` [Example 150, (R)-5-(7,8-dimethyl-[1,2,4]triazolo[1,5-a]pyridin-6-yl)-6-isopropyl-1-(1-propylpiperidin-3-yl)-1,3-dihydro-2H-benzo[d]imidazol-2-one] had an IC50 of 11.9 µM.
For `COc1cc(-c2cc3[nH]c(=O)n(C4CCN(CC5CCOC5)CC4)c3cc2C(C)C)cn2ncnc12` (centres unmarked) [Example 160, 6-isopropyl-5-(8-methoxy-[1,2,4]triazolo[1,5-a]pyridin-6-yl)-1-(1-((tetrahydrofuran-3-yl)methyl)piperidin-4-yl)-1,3-dihydro-2H-benzo[d]imidazol-2-one] the value was 14.3 µM; for `Cc1cc(-c2ccc3c(c2)[nH]c(=O)n3C2CCN(C(=O)CN(C)C)CC2)cn2ncnc12` [Example 102, 1-(1-(dimethylglycyl)piperidin-4-yl)-5-(8-methyl-[1,2,4]triazolo[1,5-a]pyridin-6-yl)-1,3-dihydro-2H-benzo[d]imidazol-2-one], 3.21 µM; for `Cc1c(-c2cc3[nH]c(=O)n([C@@H]4CCCN(C5COC5)C4)c3cc2C(C)C)cn2ncnc2c1C` [Example 146, (R)-5-(7,8-dimethyl-[1,2,4]triazolo[1,5-a]pyridin-6-yl)-6-isopropyl-1-(1-(oxetan-3-yl)piperidin-3-yl)-1,3-dihydro-2H-benzo[d]imidazol-2-one], above 50 µM.
Next, `COc1cc(-c2cc3[nH]c(=O)n([C@@H]4CCCN(CC(=O)N(C)C)C4)c3cc2C)cn2ncnc12` [Example 99, (R)-2-(3-(5-(8-methoxy-[1,2,4]triazolo[1,5-a]pyridin-6-yl)-6-methyl-2-oxo-2,3-dihydro-1H-benzo[d]imidazol-1-yl)piperidin-1-yl)-N,N-dimethylacetamide]: above 50 µM.
For `COc1cc(-c2cc3[nH]c(=O)n(C4CCN(C(C)C)CC4)c3cc2C(C)C)cn2ncnc12` [Example 163, 6-isopropyl-1-(1-isopropylpiperidin-4-yl)-5-(8-methoxy-[1,2,4]triazolo[1,5-a]pyridin-6-yl)-1,3-dihydro-2H-benzo[d]imidazol-2-one] the value was 15.3 µM; for `CCCN1CCC(n2c(=O)[nH]c3cc(-c4cc(OC)c5ncnn5c4)c(C(C)C)cc32)CC1` [Example 155, 6-isopropyl-5-(8-methoxy-[1,2,4]triazolo[1,5-a]pyridin-6-yl)-1-(1-propylpiperidin-4-yl)-1,3-dihydro-2H-benzo[d]imidazol-2-one], 11.9 µM.
For `COc1cc(-c2cc3[nH]c(=O)n([C@@H]4CCCN(C(C)C)C4)c3cc2C(F)(F)F)cn2ncnc12` [Example 111, (R)-1-(1-isopropylpiperidin-3-yl)-5-(8-methoxy-[1,2,4]triazolo[1,5-a]pyridin-6-yl)-6-(trifluoromethyl)-1,3-dihydro-2H-benzo[d]imidazol-2-one], half-maximal inhibition (IC50) was put at 9.94 µM.
With `COc1cc(-c2cc3[nH]c(=O)n([C@@H]4CCCN(C)C4)c3cc2C(F)(F)F)cn2ncnc12` [Example 114, (R)-5-(8-methoxy-[1,2,4]triazolo[1,5-a]pyridin-6-yl)-1-(1-methylpiperidin-3-yl)-6-(trifluoromethyl)-1,3-dihydro-2H-benzo[d]imidazol-2-one], the IC50 stood at 0.618 µM.
Next, `CCCN1CCC[C@@H](n2c(=O)[nH]c3cc(-c4cc(OC)c5ncnn5c4)c(C(F)(F)F)cc32)C1` [Example 115, (R)-5-(8-methoxy-[1,2,4]triazolo[1,5-a]pyridin-6-yl)-1-(1-propylpiperidin-3-yl)-6-(trifluoromethyl)-1,3-dihydro-2H-benzo[d]imidazol-2-one]: 13.4 µM.
For `COc1cc(-c2cc3[nH]c(=O)n([C@H]4CCCN(C5COC5)C4)c3cc2C(C)C)cn2ncnc12` [Example 123, (S)-6-isopropyl-5-(8-methoxy-[1,2,4]triazolo[1,5-a]pyridin-6-yl)-1-(1-(oxetan-3-yl)piperidin-3-yl)-1,3-dihydro-2H-benzo[d]imidazol-2-one] the value was above 50 µM; for `COc1cc(-c2cc3[nH]c(=O)n([C@H]4CCCN(CC5CC5)C4)c3cc2C(C)C)cn2ncnc12` [Example 127, (S)-1-(1-(cyclopropylmethyl)piperidin-3-yl)-6-isopropyl-5-(8-methoxy-[1,2,4]triazolo[1,5-a]pyridin-6-yl)-1,3-dihydro-2H-benzo[d]imidazol-2-one], 15.6 µM.
The compound `COc1cc(-c2cc3[nH]c(=O)n([C@@H]4CCCN(C5COC5)C4)c3cc2C(F)(F)F)cn2ncnc12` [Example 113, (R)-5-(8-methoxy-[1,2,4]triazolo[1,5-a]pyridin-6-yl)-1-(1-(oxetan-3-yl)piperidin-3-yl)-6-(trifluoromethyl)-1,3-dihydro-2H-benzo[d]imidazol-2-one] registered an IC50 above 50 µM.
`CCC(CC)CN1CCC[C@H](n2c(=O)[nH]c3cc(-c4cc(OC)c5ncnn5c4)c(C(C)C)cc32)C1` [Example 130, (S)-1-(1-(2-ethylbutyl)piperidin-3-yl)-6-isopropyl-5-(8-methoxy-[1,2,4]triazolo[1,5-a]pyridin-6-yl)-1,3-dihydro-2H-benzo[d]imidazol-2-one] showed an IC50 of 9.61 µM.
Next, `COCCN1CCC[C@@H](n2c(=O)[nH]c3cc(-c4cc(OC)c5ncnn5c4)c(C)cc32)C1` [Example 98, (R)-5-(8-methoxy-[1,2,4]triazolo[1,5-a]pyridin-6-yl)-1-(1-(2-methoxyethyl)piperidin-3-yl)-6-methyl-1,3-dihydro-2H-benzo[d]imidazol-2-one]: 5.91 µM; `COc1cc(-c2cc3[nH]c(=O)n(C4CCN(CC(C)C)CC4)c3cc2C(C)C)cn2ncnc12` [Example 164, 1-(1-isobutylpiperidin-4-yl)-6-isopropyl-5-(8-methoxy-[1,2,4]triazolo[1,5-a]pyridin-6-yl)-1,3-dihydro-2H-benzo[d]imidazol-2-one]: 17.2 µM.
For `Cc1cc(-c2ccc3c(c2)[nH]c(=O)n3C2CCN(C)CC2)cn2ncnc12` [Example 4, 5-(8-methyl-[1,2,4]triazolo[1,5-a]pyridin-6-yl)-1-(1-methylpiperidin-4-yl)-1,3-dihydro-2H-benzo[d]imidazol-2-one] the value was 0.964 µM.
